As usually defined, the IC50 is the point on the concentration scale where inhibition reaches its midpoint. Higher therefore signals weaker potency in that assay.

T1 sequence (P20309 whole entry): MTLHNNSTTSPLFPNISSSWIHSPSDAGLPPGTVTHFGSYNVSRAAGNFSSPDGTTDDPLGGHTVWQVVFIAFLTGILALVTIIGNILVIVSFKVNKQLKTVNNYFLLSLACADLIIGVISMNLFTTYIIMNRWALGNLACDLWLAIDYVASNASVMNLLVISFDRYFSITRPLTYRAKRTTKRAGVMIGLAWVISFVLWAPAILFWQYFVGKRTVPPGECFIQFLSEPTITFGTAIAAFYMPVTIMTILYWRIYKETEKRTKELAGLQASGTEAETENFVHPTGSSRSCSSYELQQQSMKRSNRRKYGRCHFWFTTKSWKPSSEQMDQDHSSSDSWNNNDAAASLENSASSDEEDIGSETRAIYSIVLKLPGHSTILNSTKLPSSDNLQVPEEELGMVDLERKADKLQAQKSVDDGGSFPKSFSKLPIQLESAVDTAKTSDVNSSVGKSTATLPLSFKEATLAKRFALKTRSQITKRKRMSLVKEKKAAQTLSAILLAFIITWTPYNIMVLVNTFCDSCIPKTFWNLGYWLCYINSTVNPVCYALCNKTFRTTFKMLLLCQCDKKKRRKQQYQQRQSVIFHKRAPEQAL

The assay addresses T1, human muscarinic acetylcholine M3 receptor (M3-ACh) (Homo sapiens, UniProt P20309).
T1 construct: expressed in transfected cells; host or cells: CHO-KL (Chinese Hamster Ovary) cells, membranes
Nature of the assay: biochemical. It counts as binding.
`CN1CC[C@H](OC(=O)[C@@](C)(c2ccccc2)C2CCCC2)C1` [Example 1f, (3S)-1-Methylpyrrolidin-3-yl (2R)-2-cyclopentyl-2-phenylpropanoate] gave an IC50 of 20 nM. This lies in the double-digit nanomolar range.

Compound `CN1CC[C@@H](OC(=O)[C@@](C)(c2ccccc2)C2CCCC2)C1` [Example 2a, (3R)-1-Methylpyrrolidin-3-yl (2R)-2-cyclopentyl-2-phenylpropanoate] gave an IC50 of 7.94 nM. Compared with the last compound, the IC50 is about 2.5-fold lower.

The compound `CN1CC[C@H](OC(=O)[C@](C)(c2ccccc2)C2CCCC2)C1` [Example 3c, (3S)-1-Methylpyrrolidin-3-yl (2S)-2-cyclopentyl-2-phenylpropanoate] showed a concentration for half-maximal inhibition (IC50) of 3.16 nM.

The compound `CN1CC[C@@H](OC(=O)[C@](C)(c2ccccc2)C2CCCC2)C1` [Example 4a, (3R)-1-Methylpyrrolidin-3-yl (2S)-2-cyclopentyl-2-phenylpropanoate] had a half-inhibitory concentration (IC50) of 0.794 nM.

As to `C[C@@](C(=O)O[C@@H]1CCC[N+](C)(C)C1)(c1ccccc1)C1CCCC1` [Example 5, (3R)-3-{[(2S)-2-Cyclopentyl-2-phenylpropanoyl]oxy}-1,1-dimethylpiperidinium iodide], the IC50 is 1.26 nM.

For the compound `C[C@@](C(=O)O[C@H]1CCC[N+](C)(C)C1)(c1ccccc1)C1CCCC1` [Example 6, (3S)-3-{[(2S)-2-Cyclopentyl-2-phenylpropanoyl]oxy}-1,1-dimethylpiperidinium iodide], the concentration for half-maximal inhibition (IC50) was 20 nM.

These data come from patent US20090042942A1 (priority 2005, published 2009).
